Where a SMILES comes first, the peptide text is derived from it. Bridges are numbered along the chain shown (N, C = ends). [ ]: non-standard residue; d: D form. The star is where a group is joined. Phe(4-COOH) = N[C@@H](Cc1ccc(C(=O)O)cc1)C(=O)O; Bip = N[C@@H](Cc1ccc(-c2ccccc2)cc1)C(=O)O; NH(CH2)14COOH = O=C(O)CCCCCCCCCCCCCCN*; Phe(3-F) = N[C@@H](Cc1cccc(F)c1)C(=O)O; Phe(3-Me) = Cc1cccc(C[C@H](N)C(=O)O)c1; NH(CH2)12COOH = O=C(O)CCCCCCCCCCCCN*; Val(3-OH) = CC(C)(O)[C@H](N)C(=O)O; hArg = N=C(N)NCCCC[C@H](N)C(=O)O; 4Pal = N[C@@H](Cc1ccncc1)C(=O)O; Cha = N[C@@H](CC1CCCCC1)C(=O)O; Carboxymethyl = O=C(O)C*; NMeA = CN[C@@H](C)C(=O)O; Aun = NCCCCCCCCCCC(=O)O; Dab = NCC[C@H](N)C(=O)O; Dap = NC[C@H](N)C(=O)O; AEEA = NCCOCCOCC(=O)O
molecular target: T1, PD-1/PD-L1 interaction (PE-labeled human PD-L1-Ig binding to Jurkat cell line over-expressing human PD-1) (Homo sapiens, UniProt Q15116); assay: Jurkat-PD-1 Cell Binding High-Content Screening Assay (CBA); conditions: Jurkat-hPD-1 cells, PE-labeled PD-L1-Ig 20 nM final; read-out: Jurkat HPD1 PDL1 IC50
T1 construct: expressed in transfected cells; host or cells: Jurkat
T1 sequence (Q15116 25-288): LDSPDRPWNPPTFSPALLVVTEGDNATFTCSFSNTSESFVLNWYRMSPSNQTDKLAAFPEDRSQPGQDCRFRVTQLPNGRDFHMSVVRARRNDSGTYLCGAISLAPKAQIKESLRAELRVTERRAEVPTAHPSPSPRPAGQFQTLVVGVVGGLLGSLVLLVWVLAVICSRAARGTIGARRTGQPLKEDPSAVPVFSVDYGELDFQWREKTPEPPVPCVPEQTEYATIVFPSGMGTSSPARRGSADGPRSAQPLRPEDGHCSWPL
In short: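 High-content imaging read-out of PE-PD-L1-Ig binding (20 nM final, 1 h) to Jurkat-hPD-1 cells, after 2 h compound exposure at 37 °C in DMEM with 10% FCS. Nuclei counterstained with Hoechst 33342 after paraformaldehyde fixation.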

Row | SMILES | IC50
1 | Cc1cccc(C[C@@H]2NC(=O)[C@H](CC(=O)O)NC(=O)[C@H](Cc3ccc(OCC(=O)O)cc3)NC(=O)[C@H]([C@@H](C)O)NC(=O)CSC[C@@H](C(=O)N[C@@H](CCN)C(=O)NCCOCCOCC(=O)NCCCCCCCCCCC(=O)O)NC(=O)[C@H](CCC(=O)O)NC(=O)[C@H](C(C)(C)O)NC(=O)[C@H](CC3CCCCC3)NC(=O)[C@H](CCN)NC(=O)[C@@H](CC(C)C)NC(=O)[C@H](C)N(C)C(=O)[C@H](Cc3ccc(OCC(=O)O)cc3)NC(=O)[C@H](Cc3ccc(-c4ccccc4)cc3)NC(=O)[C@H](Cc3cccc(F)c3)NC2=O)c1 [Example 1424] ({CH2CO}-TY(Carboxymethyl)D[Phe(3-Me)][Phe(3-F)][Bip]Y(Carboxymethyl)[NMeA][dL][Dab][Cha][Val(3-OH)]EC[Dab][AEEA][Aun]-OH; thioether N-14) | 27.7 nM
2 | Cc1cccc(C[C@@H]2NC(=O)[C@H](CC(=O)O)NC(=O)[C@H](Cc3ccc(OCC(=O)O)cc3)NC(=O)[C@H](Cc3ccncc3)NC(=O)CSC[C@@H](C(=O)N[C@@H](CCN)C(=O)NCCOCCOCC(=O)NCCCCCCCCCCC(=O)O)NC(=O)[C@H](CCC(=O)O)NC(=O)[C@H](C(C)(C)O)NC(=O)[C@H](CC3CCCCC3)NC(=O)[C@H](CCN)NC(=O)[C@@H](CC(C)C)NC(=O)[C@H](C)N(C)C(=O)[C@H](Cc3ccc(OCC(=O)O)cc3)NC(=O)[C@H](Cc3ccc(-c4ccccc4)cc3)NC(=O)[C@H](Cc3ccc(OCC(=O)O)cc3)NC2=O)c1 [Example 1425] ({CH2CO}-[4Pal]Y(Carboxymethyl)D[Phe(3-Me)]Y(Carboxymethyl)[Bip]Y(Carboxymethyl)[NMeA][dL][Dab][Cha][Val(3-OH)]EC[Dab][AEEA][Aun]-OH; thioether N-14) | 157 nM
3 | Cc1cccc(C[C@@H]2NC(=O)[C@H](CC(=O)O)NC(=O)[C@H](Cc3ccc(OCC(=O)O)cc3)NC(=O)[C@H](CN)NC(=O)CSC[C@@H](C(=O)N[C@@H](CCN)C(=O)NCCOCCOCC(=O)NCCCCCCCCCCC(=O)O)NC(=O)[C@H](CCC(=O)O)NC(=O)[C@H](C(C)(C)O)NC(=O)[C@H](CC3CCCCC3)NC(=O)[C@H](CCN)NC(=O)[C@@H](CC(C)C)NC(=O)[C@H](C)N(C)C(=O)[C@H](Cc3ccc(OCC(=O)O)cc3)NC(=O)[C@H](Cc3ccc(-c4ccccc4)cc3)NC(=O)[C@H](Cc3ccc(OCC(=O)O)cc3)NC2=O)c1 [Example 1426] ({CH2CO}-[Dap]Y(Carboxymethyl)D[Phe(3-Me)]Y(Carboxymethyl)[Bip]Y(Carboxymethyl)[NMeA][dL][Dab][Cha][Val(3-OH)]EC[Dab][AEEA][Aun]-OH; thioether N-14) | 18.1 nM
4 | Cc1cccc(C[C@@H]2NC(=O)[C@H](CC(=O)O)NC(=O)[C@H](Cc3ccc(C(=O)O)cc3)NC(=O)[C@H](Cc3ccncc3)NC(=O)CSC[C@@H](C(=O)N[C@@H](CCN)C(=O)NCCOCCOCC(=O)NCCCCCCCCCCC(=O)O)NC(=O)[C@H](CCC(=O)O)NC(=O)[C@H](C(C)(C)O)NC(=O)[C@H](CC3CCCCC3)NC(=O)[C@H](CCN)NC(=O)[C@@H](CC(C)C)NC(=O)[C@H](C)N(C)C(=O)[C@H](Cc3ccc(OCC(=O)O)cc3)NC(=O)[C@H](Cc3ccc(-c4ccccc4)cc3)NC(=O)[C@H](Cc3ccc(OCC(=O)O)cc3)NC2=O)c1 [Example 1427] ({CH2CO}-[4Pal][Phe(4-COOH)]D[Phe(3-Me)]Y(Carboxymethyl)[Bip]Y(Carboxymethyl)[NMeA][dL][Dab][Cha][Val(3-OH)]EC[Dab][AEEA][Aun]-OH; thioether N-14) | 111 nM
5 | Cc1cccc(C[C@@H]2NC(=O)[C@H](CC(=O)O)NC(=O)[C@H](Cc3ccc(C(=O)O)cc3)NC(=O)[C@H](Cc3ccncc3)NC(=O)CSC[C@@H](C(=O)N[C@@H](CC(N)=O)C(=O)NCCOCCOCC(=O)NCCCCCCCCCCC(=O)O)NC(=O)[C@H](CCC(=O)O)NC(=O)[C@H](C(C)(C)O)NC(=O)[C@H](CC3CCCCC3)NC(=O)[C@H](CCN)NC(=O)[C@@H](CC(C)C)NC(=O)[C@H](C)N(C)C(=O)[C@H](Cc3ccc(OCC(=O)O)cc3)NC(=O)[C@H](Cc3ccc(-c4ccccc4)cc3)NC(=O)[C@H](Cc3ccc(OCC(=O)O)cc3)NC2=O)c1 [Example 1428] ({CH2CO}-[4Pal][Phe(4-COOH)]D[Phe(3-Me)]Y(Carboxymethyl)[Bip]Y(Carboxymethyl)[NMeA][dL][Dab][Cha][Val(3-OH)]ECN[AEEA][Aun]-OH; thioether N-14) | 429 nM
6 | CC(C)C[C@@H]1NC(=O)[C@H](Cc2c[nH]c3ccccc23)NC(=O)[C@H](CC(=O)O)NC(=O)[C@H](Cc2ccc(C(=O)O)cc2)NC(=O)[C@H](Cc2ccncc2)NC(=O)CSC[C@@H](C(=O)N[C@@H](CCN)C(=O)NCCOCCOCC(=O)NCCCCCCCCCCC(=O)O)NC(=O)[C@H](CCC(=O)O)NC(=O)[C@H](C(C)(C)O)NC(=O)[C@H](CC2CCCCC2)NC(=O)[C@H](CCN)NC(=O)[C@@H](CC(C)C)NC(=O)[C@H](C)N(C)C(=O)[C@H](C(C)C)NC(=O)[C@H](Cc2ccc(-c3ccccc3)cc2)NC1=O [Example 1429] ({CH2CO}-[4Pal][Phe(4-COOH)]DWL[Bip]V[NMeA][dL][Dab][Cha][Val(3-OH)]EC[Dab][AEEA][Aun]-OH; thioether N-14) | 143 nM

Second part, the compound after the results:

Row | IC50 | SMILES
7 | 42.7 nM | Cc1cccc(C[C@@H]2NC(=O)[C@H](CC(=O)O)NC(=O)[C@H](Cc3ccc(C(=O)O)cc3)NC(=O)[C@H]([C@@H](C)O)NC(=O)CSC[C@@H](C(=O)N[C@@H](CCN)C(=O)NCCOCCOCC(=O)NCCOCCOCC(=O)NCCCCCCCCCCCCC(=O)O)NC(=O)[C@H](CCC(=O)O)NC(=O)[C@H](C(C)(C)O)NC(=O)[C@H](CC3CCCCC3)NC(=O)[C@H](CCN)NC(=O)[C@@H](CC(C)C)NC(=O)[C@H](C)N(C)C(=O)[C@H](Cc3ccc(C(=O)O)cc3)NC(=O)[C@H](Cc3ccc(-c4ccccc4)cc3)NC(=O)[C@H](Cc3ccc(C(=O)O)cc3)NC2=O)c1 [Example 1430] ({CH2CO}-T[Phe(4-COOH)]D[Phe(3-Me)][Phe(4-COOH)][Bip][Phe(4-COOH)][NMeA][dL][Dab][Cha][Val(3-OH)]EC[Dab][AEEA][AEEA]-{NH(CH2)12COOH}; thioether N-14)
8 | 962 nM | Cc1cccc(C[C@@H]2NC(=O)[C@H](CC(=O)O)NC(=O)[C@H](Cc3ccc(C(=O)O)cc3)NC(=O)[C@H]([C@@H](C)O)NC(=O)CSC[C@@H](C(=O)N[C@@H](CCN)C(=O)NCCOCCOCC(=O)NCCOCCOCC(=O)NCCCCCCCCCCCCCCC(=O)O)NC(=O)[C@H](CCC(=O)O)NC(=O)[C@H](C(C)(C)O)NC(=O)[C@H](CC3CCCCC3)NC(=O)[C@H](CCN)NC(=O)[C@@H](CC(C)C)NC(=O)[C@H](C)N(C)C(=O)[C@H](Cc3ccc(C(=O)O)cc3)NC(=O)[C@H](Cc3ccc(-c4ccccc4)cc3)NC(=O)[C@H](Cc3ccc(C(=O)O)cc3)NC2=O)c1 [Example 1431] ({CH2CO}-T[Phe(4-COOH)]D[Phe(3-Me)][Phe(4-COOH)][Bip][Phe(4-COOH)][NMeA][dL][Dab][Cha][Val(3-OH)]EC[Dab][AEEA][AEEA]-{NH(CH2)14COOH}; thioether N-14)
9 | 105 nM | Cc1cccc(C[C@@H]2NC(=O)[C@H](CC(=O)O)NC(=O)[C@H](Cc3ccc(C(=O)O)cc3)NC(=O)[C@H]([C@@H](C)O)NC(=O)CSC[C@@H](C(=O)N[C@@H](CCN)C(=O)NCCOCCOCC(=O)NCCCCCCCCCCCCC(=O)O)NC(=O)[C@H](CCC(=O)O)NC(=O)[C@H](C(C)(C)O)NC(=O)[C@H](CC3CCCCC3)NC(=O)[C@H](CCN)NC(=O)[C@@H](CC(C)C)NC(=O)[C@H](C)N(C)C(=O)[C@H](Cc3ccc(C(=O)O)cc3)NC(=O)[C@H](Cc3ccc(-c4ccccc4)cc3)NC(=O)[C@H](Cc3ccc(C(=O)O)cc3)NC2=O)c1 [Example 1432] ({CH2CO}-T[Phe(4-COOH)]D[Phe(3-Me)][Phe(4-COOH)][Bip][Phe(4-COOH)][NMeA][dL][Dab][Cha][Val(3-OH)]EC[Dab][AEEA]-{NH(CH2)12COOH}; thioether N-14)
10 | 915 nM | Cc1cccc(C[C@@H]2NC(=O)[C@H](CC(=O)O)NC(=O)[C@H](Cc3ccc(C(=O)O)cc3)NC(=O)[C@H](Cc3ccncc3)NC(=O)CSC[C@@H](C(=O)N[C@@H](CCN)C(=O)NCCOCCOCC(=O)NCCCCCCCCCCCCC(=O)O)NC(=O)[C@H](CO)NC(=O)[C@H](C(C)(C)O)NC(=O)[C@H](CC3CCCCC3)NC(=O)[C@H](CCN)NC(=O)[C@@H](CC(C)C)NC(=O)[C@H](C)N(C)C(=O)[C@H](Cc3ccc(OCC(=O)O)cc3)NC(=O)[C@H](Cc3ccc(-c4ccccc4)cc3)NC(=O)[C@H](Cc3ccc(OCC(=O)O)cc3)NC2=O)c1 [Example 1434] ({CH2CO}-[4Pal][Phe(4-COOH)]D[Phe(3-Me)]Y(Carboxymethyl)[Bip]Y(Carboxymethyl)[NMeA][dL][Dab][Cha][Val(3-OH)]SC[Dab][AEEA]-{NH(CH2)12COOH}; thioether N-14)
11 | 123 nM | CC(C)C[C@@H]1NC(=O)[C@H](Cc2c[nH]c3ccccc23)NC(=O)[C@H](CC(=O)O)NC(=O)[C@H](Cc2ccc(C(=O)O)cc2)NC(=O)[C@H](CCCCNC(=N)N)NC(=O)CSC[C@@H](C(=O)N[C@@H](C)C(=O)N[C@@H](CCN)C(=O)NCCCCCCCCCCCCCCC(=O)O)NC(=O)[C@H](CO)NC(=O)[C@H](C(C)C)NC(=O)[C@H](CC2CCCCC2)NC(=O)[C@H](CCN)NC(=O)[C@@H](CC(C)C)NC(=O)[C@H](C)N(C)C(=O)[C@H](C(C)C)NC(=O)[C@H](Cc2ccc(-c3ccccc3)cc2)NC1=O [Example 2001] ({CH2CO}-[hArg][Phe(4-COOH)]DWL[Bip]V[NMeA][dL][Dab][Cha]VSCA[Dab]-{NH(CH2)14COOH}; thioether N-14)
12 | 65.4 nM | CC(C)C[C@@H]1NC(=O)[C@H](Cc2c[nH]c3ccccc23)NC(=O)[C@H](CC(=O)O)NC(=O)[C@H](Cc2ccc(OCC(=O)O)cc2)NC(=O)[C@H](CCCCNC(=N)N)NC(=O)CSC[C@@H](C(=O)N[C@@H](C)C(=O)N[C@@H](CCN)C(=O)NCCCCCCCCCCCCCCC(=O)O)NC(=O)[C@H](CO)NC(=O)[C@H](C(C)C)NC(=O)[C@H](CC2CCCCC2)NC(=O)[C@H](CCN)NC(=O)[C@@H](CC(C)C)NC(=O)[C@H](C)N(C)C(=O)[C@H](C(C)C)NC(=O)[C@H](Cc2ccc(-c3ccccc3)cc2)NC1=O [Example 2002] ({CH2CO}-[hArg]Y(Carboxymethyl)DWL[Bip]V[NMeA][dL][Dab][Cha]VSCA[Dab]-{NH(CH2)14COOH}; thioether N-14)

From US20260070945A1, “MACROCYCLIC IMMUNOMODULATORS” (Bristol-Myers Squibb Company, priority 2022, published 2026)
